Laboratory results: patent US20240376068A1, “SIGMA LIGAND COMPOUNDS AND USES THEREOF” (Minerva Neurosciences, Inc., priority 2020, published 2024)
Where two headings read alike, the source gives them in different places.

Assays:
Sigma 2 (h) = Sigma 2 (h) (Homo sapiens (Human), UniProt Q5BJF2); test: Sigma-2 binding assay
Description: (§1) Assays for determining Sigma-1 and Sigma-2 binding values were performed according to Ganapathy, M. E. et al. (1999), J. Pharmacol. Exp. Ther., 289:251-260.

sigma 1 (h) = sigma 1 (h) (Homo sapiens (Human), UniProt Q99720); test: Sigma-1 binding assay; conditions: [3H](+)pentazocine, Jurkat cells; read-out: Sigma-1 Ki
Chain of sigma 1 (h) (Q99720 whole entry): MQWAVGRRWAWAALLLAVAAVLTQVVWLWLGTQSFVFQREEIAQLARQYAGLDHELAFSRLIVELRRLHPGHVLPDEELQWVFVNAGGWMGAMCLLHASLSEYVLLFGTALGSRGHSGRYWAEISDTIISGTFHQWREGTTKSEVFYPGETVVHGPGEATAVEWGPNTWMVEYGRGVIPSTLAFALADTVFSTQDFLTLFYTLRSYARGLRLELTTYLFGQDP
Description: as §1

5HT2A = 5HT2A (Homo sapiens (Human), UniProt P28223); test: 5HT2A agonist effect assay; format: cell-based; conditions: for activation at 0.1 µM: 100 nM, read-out: % stimulation relative to control (100 nM); for activation at 1 µM: read-out: % stimulation relative to control (1 μM)
Description: Assays for determining the agonist effect on 5HT2A were performed according to the procedure described in Example 21, and the results are represented in Table F below. The compounds in Table F have no agonist effect on 5HT2A at 1 μM and 100 nM.

hERG = hERG (Homo sapiens (Human), UniProt Q12809); test: hERG inhibition assay
Chain of hERG (Q12809 whole entry): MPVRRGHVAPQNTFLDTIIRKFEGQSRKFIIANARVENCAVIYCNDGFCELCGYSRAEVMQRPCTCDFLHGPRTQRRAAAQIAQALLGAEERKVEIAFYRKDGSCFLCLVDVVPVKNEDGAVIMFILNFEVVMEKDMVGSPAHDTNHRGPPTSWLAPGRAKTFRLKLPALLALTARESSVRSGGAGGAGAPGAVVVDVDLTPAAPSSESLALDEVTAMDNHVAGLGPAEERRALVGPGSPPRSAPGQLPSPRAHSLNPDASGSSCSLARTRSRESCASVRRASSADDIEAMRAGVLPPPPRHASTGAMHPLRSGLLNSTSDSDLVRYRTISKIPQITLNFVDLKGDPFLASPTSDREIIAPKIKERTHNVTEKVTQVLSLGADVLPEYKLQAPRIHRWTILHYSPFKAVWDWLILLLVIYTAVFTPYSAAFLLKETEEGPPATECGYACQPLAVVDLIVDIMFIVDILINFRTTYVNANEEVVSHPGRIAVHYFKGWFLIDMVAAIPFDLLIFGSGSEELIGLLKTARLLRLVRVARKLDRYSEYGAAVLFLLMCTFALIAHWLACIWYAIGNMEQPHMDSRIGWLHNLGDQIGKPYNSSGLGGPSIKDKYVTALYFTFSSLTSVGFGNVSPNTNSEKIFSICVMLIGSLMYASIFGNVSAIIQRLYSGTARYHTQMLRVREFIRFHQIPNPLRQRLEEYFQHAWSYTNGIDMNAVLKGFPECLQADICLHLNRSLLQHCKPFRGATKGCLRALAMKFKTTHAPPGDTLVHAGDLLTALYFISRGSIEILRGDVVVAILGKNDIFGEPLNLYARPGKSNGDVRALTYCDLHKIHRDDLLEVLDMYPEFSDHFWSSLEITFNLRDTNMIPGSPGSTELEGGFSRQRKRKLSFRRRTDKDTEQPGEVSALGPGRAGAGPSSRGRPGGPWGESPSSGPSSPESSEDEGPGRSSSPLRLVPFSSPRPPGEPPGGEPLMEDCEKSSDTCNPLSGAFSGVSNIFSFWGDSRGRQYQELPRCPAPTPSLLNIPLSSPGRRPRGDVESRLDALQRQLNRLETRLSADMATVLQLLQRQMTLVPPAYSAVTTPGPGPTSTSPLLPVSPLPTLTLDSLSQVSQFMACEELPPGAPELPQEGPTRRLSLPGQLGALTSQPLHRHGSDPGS

dopamine D2S receptor = dopamine D2S receptor (Homo sapiens (Human), UniProt P14416); test: Dopamine D2S receptor binding assay (Eurofins Cerep item 1322); conditions: [3H]7-OH-DPAT, read-out: % inhibition of control specific binding (1 μM)
Chain of dopamine D2S receptor (P14416 other isoform, or with tags, fused parts or gaps): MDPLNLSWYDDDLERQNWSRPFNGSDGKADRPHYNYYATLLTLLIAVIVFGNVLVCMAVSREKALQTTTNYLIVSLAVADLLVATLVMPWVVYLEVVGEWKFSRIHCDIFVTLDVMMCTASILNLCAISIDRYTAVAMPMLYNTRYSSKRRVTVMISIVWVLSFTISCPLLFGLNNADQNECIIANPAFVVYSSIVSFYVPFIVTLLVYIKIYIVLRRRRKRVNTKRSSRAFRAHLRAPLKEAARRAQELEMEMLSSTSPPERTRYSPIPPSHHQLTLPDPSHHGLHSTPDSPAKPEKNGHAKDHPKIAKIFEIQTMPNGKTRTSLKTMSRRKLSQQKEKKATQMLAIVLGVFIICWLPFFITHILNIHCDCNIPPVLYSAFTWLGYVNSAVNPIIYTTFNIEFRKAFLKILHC
Description: Assays for determining dopamine D2S receptor binding values were performed according to Eurofins Cerep protocol item 1322 and the results are represented in Table C below. The parameters used for the assay are described below. […] Common antipsychotics, in contrast, block dopamine receptors (Keefe, et al., J Clin Psychiatry. 2018; 79 (3): 17m11753).

α1a (h) [1] = target: T1, α1a (h) (Homo sapiens (Human), UniProt P35348); test: α1A adrenergic antagonist effect assay; format: cell-based; conditions: for inhibition at 1 µM: α1A(h) antagonist effect, read-out: % inhibition of control values (1 μM)
T1 sequence (P35348 whole entry): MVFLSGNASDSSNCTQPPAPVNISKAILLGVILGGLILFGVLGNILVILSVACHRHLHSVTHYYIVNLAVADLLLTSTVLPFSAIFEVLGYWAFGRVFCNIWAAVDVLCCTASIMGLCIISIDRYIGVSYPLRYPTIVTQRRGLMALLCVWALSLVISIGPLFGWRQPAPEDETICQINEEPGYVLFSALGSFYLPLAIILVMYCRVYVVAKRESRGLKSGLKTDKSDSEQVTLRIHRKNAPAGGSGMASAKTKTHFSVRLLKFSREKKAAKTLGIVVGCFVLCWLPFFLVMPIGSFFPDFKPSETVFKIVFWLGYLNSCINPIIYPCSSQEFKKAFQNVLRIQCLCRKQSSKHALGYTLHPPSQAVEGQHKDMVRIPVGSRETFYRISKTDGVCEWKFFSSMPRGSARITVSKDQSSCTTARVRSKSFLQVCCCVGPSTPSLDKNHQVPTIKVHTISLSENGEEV
Description: Assays for determining the antagonist effect on α1A (h) were performed according to the procedure described in Example 21, and the results are represented in Table E below. […] No antagonist effect is observed for the other compounds.

α1a (h) [2] = target: T1, α1a (h); test: α1A adrenergic agonist effect assay; format: cell-based; conditions: α1A(h) agonist effect, 1 μM; read-out: % stimulation relative to control (1 μM)
Description: Assays for determining the agonist effect on α1A (h) were performed according to the procedure described in Example 21, and the results are represented in Table D below.

[3] = [3H]DTG (+1 μM (+)pentazocine), Jurkat cells, read-out: Sigma-2 Ki

Chain of Sigma 2 (h) (Q5BJF2 whole entry): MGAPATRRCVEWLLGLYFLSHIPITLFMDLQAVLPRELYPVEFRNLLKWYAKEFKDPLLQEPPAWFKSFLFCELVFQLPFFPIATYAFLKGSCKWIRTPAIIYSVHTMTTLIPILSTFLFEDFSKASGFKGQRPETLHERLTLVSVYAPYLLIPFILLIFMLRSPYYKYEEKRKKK

For CN1CCN(c2ccc3c(c2)CN(C(=O)OCc2ccccc2)CC3(C)C)CC1 [Compound 1, benzyl 4,4-dimethyl-7-(4-methylpiperazin-1-yl)-3,4-dihydroisoquinoline-2(1H)-carboxylate], the Ki (Sigma 2 (h); [3]) was 0.1 to 0.5 µM and the Ki (sigma 1 (h)) was 0.1 to 0.5 µM.
Work on COC(=O)CCN1CCN(c2ccc3c(c2)CN(C(=O)OCc2ccccc2)CC3(C)C)CC1 [Compound 3, benzyl 7-(4-(3-methoxy-3-oxopropyl)piperazin-1-yl)-4,4-dimethyl-3,4-dihydroisoquinoline-2(1H)-carboxylate] yielded a Ki (Sigma 2 (h); [3]) of 0.005 to 0.05 µM and a Ki (sigma 1 (h)) of 0.1 to 0.5 µM.
In the case of CC1(C)CN(C2CCCC2)Cc2cc(-c3ccc(C(F)(F)F)cc3)ccc21 [Compound 4, 2-cyclopentyl-4,4-dimethyl-7-(4-(trifluoromethyl)phenyl)-1,2,3,4-tetrahydroisoquinoline], the Ki (Sigma 2 (h); [3]) is reported as 0.1 to 0.5 µM and the Ki (sigma 1 (h)) is reported as > 0.5 µM.
Work on CC1(C)CN(CCCO)Cc2cc(-c3ccc(C(F)(F)F)cc3)ccc21 [Compound 5, 3-(4,4-dimethyl-7-(4-(trifluoromethyl)phenyl)-3,4-dihydroisoquinolin-2(1H)-yl)propan-1-ol] yielded a Ki (Sigma 2 (h); [3]) of 0.1 to 0.5 µM and a Ki (sigma 1 (h)) of 0.1 to 0.5 µM.
With CCCN1Cc2cc(-c3ccc(C(F)(F)F)cc3)ccc2C(C)(C)C1 [Compound 6, 4,4-dimethyl-2-propyl-7-(4-(trifluoromethyl)phenyl)-1,2,3,4-tetrahydroisoquinoline] the Ki (Sigma 2 (h); [3]) was > 0.5 µM and the Ki (sigma 1 (h)) was > 0.5 µM.
CN1CCN(c2ccc3c(c2)CN(C(=O)OCc2ccccc2)CCC3(C)C)CC1 [Compound 7, benzyl 5,5-dimethyl-8-(4-methylpiperazin-1-yl)-1,3,4,5-tetrahydro-2H-benzo[c]azepine-2-carboxylate] gave a Ki (Sigma 2 (h); [3]) of 0.1 to 0.5 µM and a Ki (sigma 1 (h)) of 0.005 to 0.05 µM.
Work on CCCN1CCN(c2ccc3c(c2)CN(C(=O)OCc2ccccc2)CCC3(C)C)CC1 [Compound 8, benzyl 5,5-dimethyl-8-(4-propylpiperazin-1-yl)-1,3,4,5-tetrahydro-2H-benzo[c]azepine-2-carboxylate] yielded a Ki (Sigma 2 (h); [3]) of 0.005 to 0.05 µM and a Ki (sigma 1 (h)) of 0.0001 to 0.005 µM.
For COC(=O)CCN1CCN(c2ccc3c(c2)CN(C(=O)OCc2ccccc2)CCC3(C)C)CC1 [Compound 9, benzyl 8-(4-(3-methoxy-3-oxopropyl)piperazin-1-yl)-5,5-dimethyl-1,3,4,5-tetrahydro-2H-benzo[c]azepine-2-carboxylate], the Ki (Sigma 2 (h); [3]) was 0.005 to 0.05 µM and the Ki (sigma 1 (h)) was 0.005 to 0.05 µM.
CC1(C)CCN(CCCO)Cc2cc(-c3ccc(C(F)(F)F)cc3)ccc21 [Compound 11, 3-(5,5-dimethyl-8-(4-(trifluoromethyl)phenyl)-1,3,4,5-tetrahydro-2H-benzo[c]azepin-2-yl)propan-1-ol] was tested, and the Ki (Sigma 2 (h); [3]) was 0.1 to 0.5 µM and the Ki (sigma 1 (h)) was > 0.5 µM.
CCCN1CCC(C)(C)c2ccc(-c3ccc(C(F)(F)F)cc3)cc2C1 [Compound 12, 5,5-dimethyl-2-propyl-8-(4-(trifluoromethyl)phenyl)-2,3,4,5-tetrahydro-1H-benzo[c]azepine] was tested, and the Ki (Sigma 2 (h); [3]) was 0.05 to 0.1 µM and the Ki (sigma 1 (h)) was > 0.5 µM.
For CC1(C)CCN(C2CCCCC2)Cc2cc(-c3ccc(C(F)(F)F)cc3)ccc21 [Compound 32, 2-cyclohexyl-5,5-dimethyl-8-(4-(trifluoromethyl)phenyl)-2,3,4,5-tetrahydro-1H-benzo[c]azepine], the Ki (Sigma 2 (h)) was 0.05 to 0.1 µM, the activation at 0.1 µM (5HT2A) was 1% and the activation at 1 µM (5HT2A) was 2%. The IC50 (hERG) was > 3 µM, the inhibition at 1 µM (dopamine D2S receptor) was 8% and the inhibition at 1 µM (α1a (h) [1]) was 25%. For the same compound, the activation at 1 µM (α1a (h) [2]) was 0%.
For CC1(C)CN(S(=O)(=O)c2cccc(Cl)c2)Cc2cc(N3CCN(C4CCCC4)CC3)ccc21 [Compound 33, 2-((3-chlorophenyl)sulfonyl)-7-(4-cyclopentylpiperazin-1-yl)-4,4-dimethyl-1,2,3,4-tetrahydroisoquinoline], the Ki (Sigma 2 (h); [3]) was 0.0001 to 0.005 µM, the activation at 0.1 µM (5HT2A) was 0% and the activation at 1 µM (5HT2A) was -1%. The IC50 (hERG) was > 3 µM, the Ki (sigma 1 (h)) was 0.0001 to 0.005 µM and the inhibition at 1 µM (dopamine D2S receptor) was 13%. It also gave an inhibition at 1 µM (α1a (h) [1]) of 9% and an activation at 1 µM (α1a (h) [2]) of -1%.
With CC1(C)CN(C(=O)c2cc(F)cc(Cl)c2)Cc2cc(N3CCN(C4CCCC4)CC3)ccc21 [Compound 38, (3-chloro-5-fluorophenyl)(7-(4-cyclopentylpiperazin-1-yl)-4,4-dimethyl-3,4-dihydroisoquinolin-2(1H)-yl)methanone] the Ki (Sigma 2 (h); [3]) was 0.0001 to 0.005 µM, the activation at 0.1 µM (5HT2A) was 0% and the activation at 1 µM (5HT2A) was -1%. For the same compound, the IC50 (hERG) was 2.04 µM, the Ki (sigma 1 (h)) was 0.0001 to 0.005 µM and the inhibition at 1 µM (dopamine D2S receptor) was 1%. The “antagonist effect on α1A (h) (in words)” value (α1a (h) [1]) was “small antagonist effect”, the inhibition at 1 µM (α1a (h) [1]) was 51% and the activation at 1 µM (α1a (h) [2]) was 0%.
CC1(C)CN(C(=O)OC2CCCCC2)Cc2cc(N3CCN(C4CCCC4)CC3)ccc21 [Compound 43, cyclohexyl 7-(4-cyclopentylpiperazin-1-yl)-4,4-dimethyl-3,4-dihydroisoquinoline-2(1H)-carboxylate] gave a Ki (Sigma 2 (h); [3]) of 0.0001 to 0.005 µM, an activation at 0.1 µM (5HT2A) of -4% and an activation at 1 µM (5HT2A) of 0%. For the same compound, the IC50 (hERG) was 2.77 µM, the Ki (sigma 1 (h)) was 0.0001 to 0.005 µM and the inhibition at 1 µM (dopamine D2S receptor) was 11%. The inhibition at 1 µM (α1a (h) [1]) was 15% and the activation at 1 µM (α1a (h) [2]) was 0%.
For CC(C)OC(=O)N1Cc2cc(N3CCN(C4CCCC4)CC3)ccc2C(C)(C)C1 [Compound 45, isopropyl 7-(4-cyclopentylpiperazin-1-yl)-4,4-dimethyl-3,4-dihydroisoquinoline-2(1H)-carboxylate], the Ki (Sigma 2 (h); [3]) was 0.005 to 0.05 µM, the activation at 0.1 µM (5HT2A) was -4% and the activation at 1 µM (5HT2A) was -1%. For the same compound, the IC50 (hERG) was > 3 µM, the Ki (sigma 1 (h)) was 0.0001 to 0.005 µM and the inhibition at 1 µM (dopamine D2S receptor) was -5%. It also gave an inhibition at 1 µM (α1a (h) [1]) of 19% and an activation at 1 µM (α1a (h) [2]) of 0%.
In the case of CC1(C)CCN(C(=O)C2CCCC2)Cc2cc(N3CCN(C4CCCC4)CC3)ccc21 [Compound 73, cyclopentyl(8-(4-cyclopentylpiperazin-1-yl)-5,5-dimethyl-1,3,4,5-tetrahydro-2H-benzo[c]azepin-2-yl)methanone], the Ki (Sigma 2 (h); [3]) is reported as 0.005 to 0.05 µM, the activation at 0.1 µM (5HT2A) is reported as 2% and the activation at 1 µM (5HT2A) is reported as 0%. The IC50 (hERG) was 2.6 µM, the Ki (sigma 1 (h)) was 0.0001 to 0.005 µM and the inhibition at 1 µM (dopamine D2S receptor) was 6%. The inhibition at 1 µM (α1a (h) [1]) was 31% and the activation at 1 µM (α1a (h) [2]) was 0%.
With CC1(C)CCN(C(=O)c2cccc3c2OCO3)Cc2cc(N3CCC(N4CCOCC4)CC3)ccc21 [Compound 84, benzo[d][1,3]dioxol-4-yl(5,5-dimethyl-8-(4-morpholinopiperidin-1-yl)-1,3,4,5-tetrahydro-2H-benzo[c]azepin-2-yl)methanone] the activation at 0.1 µM (5HT2A) was -2%, the activation at 1 µM (5HT2A) was -2% and the IC50 (hERG) was > 3 µM. For the same compound, the Ki (sigma 1 (h)) was 0.005 to 0.05 µM, the inhibition at 1 µM (dopamine D2S receptor) was -1% and the inhibition at 1 µM (α1a (h) [1]) was 19%. The activation at 1 µM (α1a (h) [2]) was 0%.
In the case of CC1(C)CCN(C(=O)C2CCCC2)Cc2cc(N3CCC(N4CCOCC4)CC3)ccc21 [Compound 85, cyclopentyl(5,5-dimethyl-8-(4-morpholinopiperidin-1-yl)-1,3,4,5-tetrahydro-2H-benzo[c]azepin-2-yl)methanone], the activation at 0.1 µM (5HT2A) is reported as -2%, the activation at 1 µM (5HT2A) is reported as 0% and the IC50 (hERG) is reported as > 3 µM. It also gave a Ki (sigma 1 (h)) of 0.005 to 0.05 µM, an inhibition at 1 µM (dopamine D2S receptor) of -3% and an inhibition at 1 µM (α1a (h) [1]) of 10%. For the same compound, the activation at 1 µM (α1a (h) [2]) was 1%.
For CC1(C)CCN(C(=O)C2CCCCC2)Cc2cc(N3CCC(N4CCOCC4)CC3)ccc21 [Compound 86, cyclohexyl(5,5-dimethyl-8-(4-morpholinopiperidin-1-yl)-1,3,4,5-tetrahydro-2H-benzo[c]azepin-2-yl)methanone], the activation at 0.1 µM (5HT2A) was 2%, the activation at 1 µM (5HT2A) was 1% and the IC50 (hERG) was > 3 µM. It also gave a Ki (sigma 1 (h)) of 0.0001 to 0.005 µM, an inhibition at 1 µM (dopamine D2S receptor) of 2% and an inhibition at 1 µM (α1a (h) [1]) of -3%. It also gave an activation at 1 µM (α1a (h) [2]) of 0%.
Cc1cc(-c2ccc3c(c2)CN(CCC(=O)N2CCc4ccccc4C2)CCC3(C)C)cc(C)n1 [Compound 111, 1-(3,4-dihydroisoquinolin-2(1H)-yl)-3-(8-(2,6-dimethylpyridin-4-yl)-5,5-dimethyl-1,3,4,5-tetrahydro-2H-benzo[c]azepin-2-yl)propan-1-one] was tested, and the Ki (Sigma 2 (h); [3]) was 0.05 to 0.1 µM, the activation at 0.1 µM (5HT2A) was -1% and the activation at 1 µM (5HT2A) was -2%. The IC50 (hERG) was 2.22 µM, the inhibition at 1 µM (dopamine D2S receptor) was 37% and the “antagonist effect on α1A (h) (in words)” value (α1a (h) [1]) was “small antagonist effect”. It also gave an inhibition at 1 µM (α1a (h) [1]) of 57% and an activation at 1 µM (α1a (h) [2]) of 0%.
Cc1cc(-c2ccc3c(c2)CN(CCC(=O)N2CCC(C)CC2)CCC3(C)C)cc(C)n1 [Compound 131, 3-(8-(2,6-dimethylpyridin-4-yl)-5,5-dimethyl-1,3,4,5-tetrahydro-2H-benzo[c]azepin-2-yl)-1-(4-methylpiperidin-1-yl)propan-1-one] was tested, and the Ki (Sigma 2 (h)) was 0.05 to 0.1 µM, the activation at 0.1 µM (5HT2A) was 1% and the activation at 1 µM (5HT2A) was -1%. The IC50 (hERG) was > 3 µM, the inhibition at 1 µM (dopamine D2S receptor) was 21% and the inhibition at 1 µM (α1a (h) [1]) was 31%. For the same compound, the activation at 1 µM (α1a (h) [2]) was -1%.
